For three compounds, IC50 results are on record in ChEMBL document CHEMBL5113510, “Protein Lysine Methyltransferase SMYD2: A Promising Small Molecule Target for Cancer Therapy” (J Med Chem, 2022).

pIC50: −log10 of the molar value.

The target in test [1] is T1, N-lysine methyltransferase SMYD2 (Homo sapiens, UniProt Q9NRG4). Put plainly: Inhibition of FLAG-tagged SMYD2 (unknown origin) expressed in human U2OS cells mediated intracellular p53 methylation incubated for 24 hrs using p53 as substrate by immunofluorescence analysis. In kind it is cell-based.
The next test has as its system KYSE-150 cell line. Put plainly: Antitumor activity against human KYSE-150 cells assessed as inhibition of cell proliferation incubated for 3 to 7 days by CellTiter-Glo assay. It counts as functional, cell-based.
Another test has as its system KYSE-270. Put plainly: Antitumor activity against human KYSE-270 cells assessed as inhibition of cell proliferation incubated for 3 to 7 days by CellTiter-Glo assay. In kind it is functional, cell-based.
Test [2] can be described thus: Antitumor activity against human HCC cells assessed as inhibition of cell proliferation incubated for 3 to 7 days by CellTiter-Glo assay. In kind it is functional, cell-based.
The nature of test [3]: Antitumor activity against human BC cells assessed as inhibition of cell proliferation incubated for 3 to 7 days by CellTiter-Glo assay. In kind it is functional, cell-based.
Test [4] addresses T1, N-lysine methyltransferase SMYD2. In words: Inhibition of human SMYD2 overexpressing human KYSE-150 cells assessed as SMYD2 assessed as reduction in BTF3 monomethylation by Western blot analysis. It counts as cell-based, KYSE-150 cell line.

T1 sequence (Q9NRG4 whole entry): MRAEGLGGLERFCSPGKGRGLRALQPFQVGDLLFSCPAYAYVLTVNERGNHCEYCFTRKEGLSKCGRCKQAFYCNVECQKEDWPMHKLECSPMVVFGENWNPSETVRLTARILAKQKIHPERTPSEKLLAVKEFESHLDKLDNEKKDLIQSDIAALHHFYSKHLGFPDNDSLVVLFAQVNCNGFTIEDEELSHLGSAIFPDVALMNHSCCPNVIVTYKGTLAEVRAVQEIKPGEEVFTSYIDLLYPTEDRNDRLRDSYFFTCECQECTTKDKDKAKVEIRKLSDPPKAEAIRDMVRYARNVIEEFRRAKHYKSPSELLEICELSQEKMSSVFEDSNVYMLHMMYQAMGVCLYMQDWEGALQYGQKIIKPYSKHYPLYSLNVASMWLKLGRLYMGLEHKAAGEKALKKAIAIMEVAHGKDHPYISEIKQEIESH

`O=C1COc2c(CCNCCN(C(=O)CCNCCc3ccc(Cl)c(Cl)c3)C3CCCCC3)ccc(O)c2N1`: in test [1], the pIC50 is more than 4.00.

`Cc1cn(CCN2CCN(c3ccccc3-c3cc(C#N)cc(C(=O)NCCCN4CCCC4)c3)CC2)c2ccccc12`: the pIC50 (in the test with KYSE-150 cell line; with KYSE-270; in test [2]; in test [3]) was 5.82 each time.

In the case of `O=C(NC1CN(Cc2cnn(Cc3ccc(Cl)cc3)c2)C1)c1cn(C2CC2)nn1`, the pIC50 in test [4] is 8.54.
